Values after ≈ are worked out from the molar mass of the structure shown. Like-named read-outs stand apart in the source and are kept apart here.
Tests used:
[1] = test system: Pasteurella multocida; assay: Efficacy against Pasteurella multocida infections in mice when administered by injection (Experiment 1); format: in vivo, Swiss mice; conditions: ip; for responders at 2.5 mg/kg: 2.5 mg./kg. i.p.; for responders at 5 mg/kg: 5.0 mg./kg. i.p.; for responders at 7.5 mg/kg: 7.5 mg./kg. i.p.
Procedure: The efficacy of the novel compounds against Pasteurella multocida infections in mice when administered by injection was studied.
Female Swiss mice weighing from 15 to about 20 g. were used. The test compound, 5.0 mg., was weighed out and dissolved in 0.5 ml. of dimethyl sulfoxide, and this solution was added to 9.5 ml. of sodium carboxymethylcellulose suspension. Groups of five mice each were injected intraperitoneally with 0.1 ml. each of the above-prepared test composition. This preparation gave a test rate of 2.5 mg. per kilo of body weight of mouse. The compounds were tested at 2.5, 5.0, or 7.5 mg. per kilo of body weight of mouse, and the test preparations for rates of 5.0 and 7.5 mg./kg. were prepared in a similar manner. Immediately after receiving the test compound, the mice were challenged using log10 dilutions of 10^-^4, 10^-^5, 10^-^6, and 10^-^7 of a 16 to 20-hour tryptose broth culture of Pasteurella multocida at 0.1 ml. per mouse subcutaneously. Similar groups of nontreated control mice were also challenged, the challenge being administered subcutaneously. The groups of mice were observed daily for mortality and the total mortality in treated groups compared with that which occurred in the nonmedicated control groups. Each test compound is identified by the number of the example describing its preparation.
In the chart, column 1 lists the test compound; column 2, the dosage of test compound in mg./kg. of mouse body weight; column 3, the dilution of the challenge organism; and column 4, the ratio of the number of mice surviving the test at each dosage and challenge dilution to the number of mice tested at each dosage and challenge dilution, called the survival ratio.

[2] = test system: Salmonella typhimurium; assay: Control of infections caused by Salmonella typhimurium in chickens, subcutaneous (Experiment 2); format: in vivo; conditions: Salmonella enterica, sc, 144 h, 6 days, read-out: Survival Ratio (converted); for responders at 7.5 mg/kg: 7.5 mg./kg. subcutaneous; for responders at 15 mg/kg: 15 mg./kg. subcutaneous; for responders at 30 mg/kg: 30 mg./kg. subcutaneous; for responders at 60 mg/kg: 60 mg./kg. subcutaneous
[3] = test system: Clostridium ramosum 1313; assay: Susceptibility of anaerobic bacteria, agar dilution; format: cell-based; conditions: read-out: 24 Hr. Minimum Inhibitory Concentration
[4] = test system: Eubacterium aerofaciens 1235; assay: as above; format: cell-based; conditions: read-out: 24 Hr. Minimum Inhibitory Concentration
[5] = test system: Peptococcus anaerobius 1428; assay: as above; format: cell-based; conditions: 24 h, read-out: 24 Hr. Minimum Inhibitory Concentration
[6] = test system: Peptostreptococcus intermedius 1264; assay: as above; format: cell-based; conditions: 24 h; Peptostreptococcus intermedius 1264; read-out: 24 Hr. Minimum Inhibitory Concentration
[7] = test system: Propionibacterium acnes 79; assay: as above; format: cell-based; conditions: read-out: 24 Hr. Minimum Inhibitory Concentration
[8] = test system: Bacteroides fragilis sp. fragilis 1877; assay: as above; format: cell-based; conditions: 24 h, read-out: 24 Hr. Minimum Inhibitory Concentration
[9] = test system: Bacteroides fragilis sp. thetaiotaomicron 1438; assay: as above; format: cell-based; conditions: 24 h, read-out: 24 Hr. Minimum Inhibitory Concentration
[10] = test system: Bacteroides fragilis sp. vulgatus 1563; assay: as above; format: cell-based; conditions: 24 h, read-out: 24 Hr. Minimum Inhibitory Concentration
[11] = test system: Bacteroides fragilis sp. vulgatus 1211; assay: as above; format: cell-based; conditions: 24 h, read-out: 24 Hr. Minimum Inhibitory Concentration
[12] = test system: Fusobacterium symbiosum 1470; assay: as above; format: cell-based; conditions: read-out: 24 Hr. Minimum Inhibitory Concentration
[13] = challenge dilution 10^-^4, read-out: Survival Ratio (converted)
[14] = challenge dilution 10^-^5, read-out: Survival Ratio (converted)
[15] = challenge dilution 10^-^6, read-out: Survival Ratio (converted)
[16] = Thomasclavelia ramosa, 24 h, Clostridium ramosum 1313
[17] = Collinsella aerofaciens, 24 h, Eubacterium aerofaciens 1235
[18] = Cutibacterium acnes, 24 h, Propionibacterium acnes 79
[19] = Bacteroides fragilis sp. fragilis 1877
[20] = Bacteroides fragilis sp. thetaiotaomicron 1438
[21] = Bacteroides fragilis sp. vulgatus 1563
[22] = Bacteroides fragilis sp. vulgatus 1211
[23] = 24 h, Fusobacterium symbiosum 1470

SMILES	responders at 2.5 mg/kg [1, 13]	responders at 2.5 mg/kg [1, 14]	responders at 2.5 mg/kg [1, 15]	responders at 7.5 mg/kg [2]	responders at 15 mg/kg [2]	responders at 30 mg/kg [2]	responders at 60 mg/kg [2]	MIC [6]	responders at 5 mg/kg [1, 13]	responders at 5 mg/kg [1, 14]	responders at 5 mg/kg [1, 15]	MIC [3, 16]	MIC [4, 17]	MIC ([5]; Peptococcus anaerobius 1428)	MIC [7, 18]	MIC [8, 19]	MIC [9, 20]	MIC [10, 21]	MIC [11, 22]	MIC [12, 23]	other results
Cn1nc(-c2ncc([N+](=O)[O-])n2C)c(C(N)=O)c1N [Compound 2, 5-Amino-1-methyl-3-(1-methyl-5-nitro-2-imidazolyl)pyrazole-4-carboxamide]	50%	90%	100%	0%	40%	44%	46.7%	1 µg/mL (≈ 3.77 µM)													MIC ([3]; Thomasclavelia ramosa, 1313, 24 h): < 0.125 µg/mL; MIC ([4]; Collinsella aerofaciens, 1235, 24 h): < 0.125 µg/mL; MIC [5]: < 0.125 µg/mL; MIC ([7]; Cutibacterium acnes, 79, 24 h): < 0.125 µg/mL; MIC ([8]; Bacteroides fragilis): < 0.125 µg/mL; MIC ([9]; Bacteroides fragilis): < 0.125 µg/mL; MIC ([10]; Bacteroides fragilis): < 0.125 µg/mL; MIC ([11]; Bacteroides fragilis): < 0.125 µg/mL; MIC ([12]; Fusobacterium, 1470, 24 h): < 0.125 µg/mL
C=CCOC=Nc1c(C#N)c(-c2ncc([N+](=O)[O-])n2C)nn1C [Compound 13A, Allyl N-[4-cyano-1-methyl-3-(1-methyl-5-nitro-2-imidazolyl)pyrazol-5-yl]formimidate]				46.7%	53.3%	33.3%	50%	16 µg/mL (≈ 50.7 µM)	60%	80%	100%	4 µg/mL (≈ 12.7 µM)	< 0.125 µg/mL	2 µg/mL (≈ 6.34 µM)	< 0.125 µg/mL	0.5 µg/mL (≈ 1.59 µM)	0.25 µg/mL (≈ 0.793 µM)	0.25 µg/mL (≈ 0.793 µM)	< 0.125 µg/mL	< 0.125 µg/mL	responders at 3.75 mg/kg ([2]; 3.75 mg./kg. subcutaneous): 40%
CCCCC(CC)COC=Nc1c(C#N)c(-c2ncc([N+](=O)[O-])n2C)nn1C (stereo not drawn) [Compound 13D, 2-Ethylhexyl N-[4-cyano-1-methyl-3-(1-methyl-5-nitro-2-imidazolyl)pyrazol-5-yl]formimidate]	30%	70%	90%		10%	10%	33.3%	16 µg/mL (≈ 41.3 µM)	90%	100%	100%	1 µg/mL (≈ 2.58 µM)	2 µg/mL (≈ 5.16 µM)	2 µg/mL (≈ 5.16 µM)	2 µg/mL (≈ 5.16 µM)	2 µg/mL (≈ 5.16 µM)	1 µg/mL (≈ 2.58 µM)	0.5 µg/mL (≈ 1.29 µM)	1 µg/mL (≈ 2.58 µM)	1 µg/mL (≈ 2.58 µM)	responders at 7.5 mg/kg ([1]; challenge dilution 10^-^4, read-out: Survival Ratio): 100%; responders at 7.5 mg/kg ([1]; challenge dilution 10^-^5, read-out: Survival Ratio): 100%; responders at 7.5 mg/kg ([1]; challenge dilution 10^-^6, read-out: Survival Ratio): 100%
